# Test results taken from publication PMC4203399 (Journal of Medicinal Chemistry, 2014).
# “Also recorded” adds a separate entry of the source.
# What was measured:
# Huh-5-2 cells [1] = experiment: MTS assay of antimetabolic effect, Huh-5-2; type: cell-based; conditions: data not shown
# recombinant NS5BCΔ21 1b = recombinant NS5BCΔ21 1b (Hepatitis C virus genotype 1b, UniProt O92972); experiment: NS5B primer dependent elongation; type: biochemical; conditions: for inhibition at 50 µM: read-out: inhibition of NS5B RdRp activity, screen at 50 μM
# [2] = tested on: genotype 1b HCV subgenomic replicon in Huh-5-2 cells; type: cell-based, hepatitis C virus
# Huh-5-2 cells [3] = experiment: microscopic examination of cell morphology in the replicon assay; type: cell-based; conditions: 72 h of compound treatment
SMILES,antimetabolic effect after dose–response curve analysis (Huh-5-2 cells [1]),inhibition at 50 µM (recombinant NS5BCΔ21 1b),assessment of anti-HCV activity in the replicon assay (in words) [2],anti-NS5B activity (in words) (recombinant NS5BCΔ21 1b),further results
"Cc1ccccc1-n1nc(C(=O)Nc2ccc(NS(C)(=O)=O)cc2)c2c1-c1ccccc1S(=O)(=O)N2C [2i, 4-Methyl-1-(2-methylphenyl)-N-{4-[(methylsulfonyl)amino]phenyl}-1,4-dihydropyrazolo[4,3-c][1,2]benzothiazine-3-carboxamide 5,5-Dioxide]",displayed antimetabolic effect,,,,
"CN1c2c(C(=O)Nc3ccc(NS(C)(=O)=O)cc3)nn(-c3cccc(C(F)(F)F)c3)c2-c2ccccc2S1(=O)=O [2l, 4-Methyl-N-{4-[(methylsulfonyl)amino]phenyl}-1-[3-(trifluoromethyl)phenyl]-1,4-dihydropyrazolo[4,3-c][1,2]benzothiazine-3-carboxamide 5,5-Dioxide]",,≥ 50%,selective anti-HCV activity without any antimetabolic effect,,
"CN1c2c(C(=O)Nc3ccc(NS(C)(=O)=O)cc3)nn(-c3ccccc3C(F)(F)F)c2-c2ccccc2S1(=O)=O [2n, 4-Methyl-N-{4-[(methylsulfonyl)amino]phenyl}-1-[2-(trifluoromethyl)phenyl]-1,4-dihydropyrazolo[4,3-c][1,2]benzothiazine-3-carboxamide 5,5-Dioxide]",,< 50%,,,
"CN1c2c(C(=O)Nc3ccc(NS(C)(=O)=O)cc3)nn(-c3ccc(C(F)(F)F)cc3)c2-c2ccccc2S1(=O)=O [2m, 4-Methyl-N-{4-[(methylsulfonyl)amino]phenyl}-1-[4-(trifluoromethyl)phenyl]-1,4-dihydropyrazolo[4,3-c][1,2]benzothiazine-3-carboxamide 5,5-Dioxide]",displayed antimetabolic effect,≥ 50%,,,
"CN1c2c(C(=O)Nc3ccccc3)nn(-c3cccc(F)c3)c2-c2ccccc2S1(=O)=O [compound 3, 1-(3-Fluorophenyl)-4-methyl-N-phenyl-1,4-dihydropyrazolo[4,3-c][1,2]benzothiazine-3-carboxamide 5,5-Dioxide]",,,false positives,inactive,
"CN1c2c(C(=O)Nc3ccc(NS(C)(=O)=O)cc3)nn(-c3ccc(Cl)c(Cl)c3)c2-c2ccccc2S1(=O)=O [2p, 1-(3,4-Dichlorophenyl)-4-methyl-N-{4-[(methylsulfonyl)amino]phenyl}-1,4-dihydropyrazolo[4,3-c][1,2]benzothiazine-3-carboxamide 5,5-Dioxide]",displayed antimetabolic effect,≥ 50%,,,
"Cc1ccc(-n2nc(C(=O)Nc3ccc(NS(C)(=O)=O)cc3)c3c2-c2ccccc2S(=O)(=O)N3C)cc1Cl [2r, 1-(3-Chloro-4-methylphenyl)-4-methyl-N-{4-[(methylsulfonyl)amino]phenyl}-1,4-dihydropyrazolo[4,3-c][1,2]benzothiazine-3-carboxamide 5,5-Dioxide]",displayed antimetabolic effect,≥ 50%,,,
"CN1c2c(C(=O)Nc3ccc(NS(C)(=O)=O)cc3)nn(-c3ccccc3Br)c2-c2ccccc2S1(=O)=O [2f, 1-(2-Bromophenyl)-4-methyl-N-{4-[(methylsulfonyl)amino]phenyl}-1,4-dihydropyrazolo[4,3-c][1,2]benzothiazine-3-carboxamide 5,5-Dioxide]",,,false positives,,
"CN1c2c(C(=O)Nc3ccc(NS(C)(=O)=O)cc3)n[nH]c2-c2ccccc2S1(=O)=O [2u, 4-Methyl-N-{4-[(Methylsulfonyl)amino]phenyl}-1,4-dihydropyrazolo[4,3-c][1,2]benzothiazine-3-carboxamide 5,5-Dioxide]",,< 50%,,totally inactive,
"Cc1cccc(-n2nc(C(=O)Nc3ccc(NS(C)(=O)=O)cc3)c3c2-c2ccccc2S(=O)(=O)N3C)c1 [2g, 4-Methyl-1-(3-methylphenyl)-N-{4-[(methylsulfonyl)amino]phenyl}-1,4-dihydropyrazolo[4,3-c][1,2]benzothiazine-3-carboxamide 5,5-Dioxide]",,,selective anti-HCV activity without any antimetabolic effect,,
"CN1c2c(C(=O)Nc3ccc(NS(C)(=O)=O)cc3)nn(-c3ccccc3Cl)c2-c2ccccc2S1(=O)=O [2c, 1-(2-Chlorophenyl)-4-methyl-N-{4-[(methylsulfonyl)amino]phenyl}-1,4-dihydropyrazolo[4,3-c][1,2]benzothiazine-3-carboxamide 5,5-Dioxide]",displayed antimetabolic effect,,,,
"CN1c2c(C(=O)Nc3ccc(OCC(N)=O)cc3)nn(-c3cccc(F)c3)c2-c2ccccc2S1(=O)=O [compound 4, N-[4-(Amino-2-oxoethoxy)phenyl]-1-(3-fluorophenyl)-4-methyl-1,4-dihydropyrazolo[4,3c][1,2]benzothiazine-3-carboxamide 5,5-Dioxide]",displayed antimetabolic effect,,,inactive,
"CN1c2c(C(=O)Nc3ccc(NS(C)(=O)=O)cc3)nn(-c3cccc(Br)c3)c2-c2ccccc2S1(=O)=O [2d, 1-(3-Bromophenyl)-4-methyl-N-{4-[(methylsulfonyl)amino]phenyl}-1,4-dihydropyrazolo[4,3-c][1,2]benzothiazine-3-carboxamide 5,5-Dioxide]",,,selective anti-HCV activity without any antimetabolic effect,,
"Cc1ccc(-n2nc(C(=O)Nc3ccc(NS(C)(=O)=O)cc3)c3c2-c2ccccc2S(=O)(=O)N3C)cc1 [2h, 4-Methyl-1-(4-methylphenyl)-N-{4-[(methylsulfonyl)amino]phenyl}-1,4-dihydropyrazolo[4,3-c][1,2]benzothiazine-3-carboxamide 5,5-Dioxide]",,,selective anti-HCV activity without any antimetabolic effect,,effect on cell morphology (microscopic analysis) (Huh-5-2 cells [3]): did not display any significant effects on cell morphology; also recorded: did not display any antimetabolic and cell morphology alteration effects
"COc1ccc(-n2nc(C(=O)Nc3ccc(NS(C)(=O)=O)cc3)c3c2-c2ccccc2S(=O)(=O)N3C)cc1 [2k, 1-(4-Methoxyphenyl)-4-methyl-N-{4-[(methylsulfonyl)amino]phenyl}-1,4-dihydropyrazolo[4,3-c][1,2]benzothiazine-3-carboxamide 5,5-Dioxide]",,< 50%,selective anti-HCV activity without any antimetabolic effect,inactive,effect on cell morphology (microscopic analysis) (Huh-5-2 cells [3]): did not display any significant effects on cell morphology
"CN1c2c(C(=O)Nc3ccc(NS(C)(=O)=O)cc3)nn(-c3ccc(Br)cc3)c2-c2ccccc2S1(=O)=O [2e, 1-(4-Bromophenyl)-4-methyl-N-{4-[(methylsulfonyl)amino]phenyl}-1,4-dihydropyrazolo[4,3-c][1,2]benzothiazine-3-carboxamide 5,5-Dioxide]",,,selective anti-HCV activity without any antimetabolic effect,,
"CN1c2c(NC(=O)c3ccc(NS(C)(=O)=O)cc3)nn(-c3cccc(F)c3)c2-c2ccccc2S1(=O)=O [compound 5, N-[1-(3-Fluorophenyl)-4-methyl-5,5-dioxido-1,4-dihydropyrazolo[4,3-c][1,2]benzothiazin-3-yl]-4-(methylsulfonyl)aminobenzamide]",,,,inactive,
"COc1cccc(-n2nc(C(=O)Nc3ccc(NS(C)(=O)=O)cc3)c3c2-c2ccccc2S(=O)(=O)N3C)c1 [2j, 1-(3-Methoxyphenyl)-4-methyl-N-{4-[(methylsulfonyl)amino]phenyl}-1,4-dihydropyrazolo[4,3-c][1,2]benzothiazine-3-carboxamide 5,5-Dioxide]",,< 50%,,inactive,
"CN1c2c(C(=O)Nc3ccc(NS(C)(=O)=O)cc3)nn(-c3ccc(F)c(F)c3)c2-c2ccccc2S1(=O)=O [2o, 1-(3,4-Difluorophenyl)-4-methyl-N-{4-[(methylsulfonyl)amino]phenyl}-1,4-dihydropyrazolo[4,3-c][1,2]benzothiazine-3-carboxamide 5,5-Dioxide]",,≥ 50%,false positives,less active than compound 1,
"Cc1ccc(-n2nc(C(=O)Nc3ccc(NS(C)(=O)=O)cc3)c3c2-c2ccccc2S(=O)(=O)N3C)cc1C [2q, 1-(3,4-Dimethylphenyl)-4-methyl-N-{4-[(methylsulfonyl)amino]phenyl}-1,4-dihydropyrazolo[4,3-c][1,2]benzothiazine-3-carboxamide 5,5-Dioxide]",,< 50%,,,
"CN1c2c(C(=O)Nc3ccc(NS(C)(=O)=O)cc3)nn(-c3ccc(Cl)c(C(F)(F)F)c3)c2-c2ccccc2S1(=O)=O [2s, 1-[4-Chloro-3-(trifluoromethyl)phenyl]-4-methyl-N-{4-[(methylsulfonyl)amino]phenyl}-1,4-dihydropyrazolo[4,3-c][1,2]benzothiazine-3-carboxamide 5,5-Dioxide]",displayed antimetabolic effect,< 50%,,,
